The values that follow come from patent US20230241257A1, “BIOTIN-MODIFIED DIMER AND USE THEREOF” (THE UNIVERSITY OF TOKYO, priority 2020, published 2023).

For series [1], the system named is human stomach cancer cells (MKN-45). Briefly: Experiment 9: pharmacokinetics (6 h) of Cupid-scFv antibody (24 h before)+^211At-psyche-BR in MKN-45 cancer-bearing mouse models. The series is classed as in vivo, mice (BALB/cSlc nu/nu). Particulars: six hours after administration, tumor on Day 8 after transplantation. As for the experimental part: The present experiment used human stomach cancer cells (MKN-45) expressing carcinoembryonic antigen (CEA). 9-week-old male immunodeficient mice (BALB/cSlc nu/nu) were used. MKN-45 cells (1×10^7/0.1 ml) were transplanted into the mice's subcutis on the right shoulder dorsal side to produce cancer-bearing mouse models. When the tumor volume became a predetermined size (on Day 8 after the transplantation), the Cupid-scFv antibody was administered 100 μmol/0.1 ml via the caudal vein of each mouse. Twenty-four hours after administration of the Cupid-scFv antibody, ^211At-psyche-BR (about 0.30 MBq/100 ml) was administered via the caudal vein of each mouse. […] After that, the weights of blood, plasma, urine, tumor, and normal tissues/organs were measured, and the radioactivity thereof was then measured using a γ counter. The amounts of the ^211At-psyche-BR (radioactivity) accumulated in the blood, plasma, urine, tumor, and normal tissues/organs were calculated. […] Regarding accumulation of the ^211At-psyche-BR in the thyroid gland, since the weight of the thyroid gland could not be precisely measured, it was shown that the rate (% ID) of the ^211At-psyche-BR accumulated in the thyroid gland in the administered ^211At-psyche-BR.

The test system is the same in series [2]. Briefly: Experiment 3: pharmacokinetics of Cupid-scFv antibody (48 h before)+^211At-psyche-B in MKN-45 cancer-bearing mouse models. Format: in vivo, mice (BALB/cSlc nu/nu). As for the experimental part: The present experiment highly used CEA-expressing human stomach cancer cells (MKN-45). 9-week-old male immunodeficient mice (BALB/cSlc nu/nu) were used. MKN-45 cells (1×10^7/0.1 ml) were transplanted into the mice's subcutis on the right shoulder dorsal side to produce cancer-bearing mouse models. The mice were divided into four groups when the tumor volume became a predetermined size (on Day 12 after the transplantation). A Cupid-scFv antibody was administered in 100 μmol/0.1 ml via the caudal vein of each mouse. Forty-eight hours after administration of the Cupid-scFv antibody, ^211At-psyche-B (about 0.25 MBq/100 ml) was administered via the caudal vein of the mice. One minute, 1 hour, 6 hours, and 24 hours after administration of the ^211At-psyche-B, the mice were euthanized by collecting whole blood from the heart of each mouse under isoflurane anesthesia, and tumor tissues and normal tissues/organs were then excised. Normal tissues/organs: skin (lower right limb), muscle (right gastrocnemius muscle), heart, lung, spleen, pancreas, white fat (upper portion of right side testis), testis (both sides), stomach, stomach contents, small intestine (including contents), large intestine (including contents), liver, brown fat (interscapular), submandibular gland, thyroid gland (together with trachea), bone (right femur), cerebrum, eyeballs (both sides), bladder, and urine; the remaining residues were divided into three equal parts, and the three equal parts were defined to be residue-1, residue-2, and residue-3. After that, the weights of blood, plasma, urine, tumor, and normal tissues/organs were measured, and the radioactivity thereof was then measured using a γ counter. The amounts of the ^211At-psyche-B (radioactivity) accumulated in the blood, plasma, urine, tumor, and normal tissues/organs were calculated. That is to say, the rates (% ID/g) of the ^211At-psyche-B accumulated per unit weight (g) of the blood, plasma, urine, tumor, and normal tissues/organs, in the administered ^211At-psyche-B, were shown. Regarding accumulation of the ^211At-psyche-B in the thyroid gland, since the weight of the thyroid gland could not be precisely measured, it was shown that the rate (% ID) of the ^211At-psyche-B accumulated in the thyroid gland in the administered ^211At-psyche-B.

Consider `N=C1N[C@H]2[C@H](CS[C@H]2CCCCNC(=O)CCCCCC(=O)Nc2cc(NC(=O)CCCCCC(=O)NCCCC[C@@H]3SC[C@@H]4NC(=N)N[C@@H]43)cc(C(=O)NCCOCCOCCNC(=O)c3cccc([211At])c3)c2)N1` [^211At-psyche-BR], for which, in series [1], the “Accumulation in the tumor” value amounted to 31.0±3.4 % ID/g.
In the case of `N=C1N[C@H]2[C@H](CS[C@H]2CCCCC(=O)NCCCCCC(=O)Nc2cc(NC(=O)CCCCCNC(=O)CCCC[C@@H]3SC[C@@H]4NC(=N)N[C@@H]43)cc(C(=O)NCCOCCOCCNC(=O)c3cccc([211At])c3)c2)N1` [^211At-psyche-B], in series [2] (after 1 minute), the “Accumulation in the kidney” value turned out to be 62.3±9.8 % ID/g, the “Accumulation in the liver” value was determined as 41.4±6.2 % ID/g, the “Accumulation in the lung” value came to 10.2±1.6 % ID/g and the “Accumulation in the spleen” value is on record as 3.5±0.1 % ID/g. Further, in series [2] (after 1 minute), the “Accumulation in the tumor” value is on record as 0.5±0.1 % ID/g, the “Clearance from the blood” value is listed as 30.7±2.2 % ID/g, the tumor-to-blood ratio worked out at 0.02±0.00 and the tumor-to-muscle ratio is 1.0±0.3. In series [2] (after 1 hour), the “Accumulation in the kidney” value is given as 38.0±4.5 % ID/g, the “Accumulation in the liver” value was 25.6±2.5 % ID/g, the “Accumulation in the lung” value amounted to 12.2±0.9 % ID/g and the “Accumulation in the spleen” value is reported as 8.5±0.6 % ID/g. In series [2] (after 1 hour), the “Accumulation in the tumor” value came to 3.2±0.7 % ID/g, the “Clearance from the blood” value was 30.8±5.5 % ID/g, the tumor-to-blood ratio worked out at 0.11±0.02 and the tumor-to-muscle ratio is 4.7±0.4. Besides, in series [2] (after 6 hours), the “Accumulation in the kidney” value is 14.9±0.8 % ID/g, the “Accumulation in the liver” value was 23.6±2.3 % ID/g, the “Accumulation in the lung” value is on record as 8.5±0.9 % ID/g and the “Accumulation in the spleen” value is given as 11.1±0.7 % ID/g. In series [2] (after 6 hours), the “Accumulation in the tumor” value turned out to be 9.9±2.9 % ID/g, the “Clearance from the blood” value is reported as 19.0±2.6 % ID/g, the tumor-to-blood ratio is on record as 0.51±0.09 and the tumor-to-muscle ratio came to 13.1±3.5. In addition, the “Accumulation in the thyroid gland” value in series [2] (after 24 h) came out at 0.16±0.02 % ID. Further, in series [2] (after 24 hours), the “Accumulation in the kidney” value is given as 6.6±0.2%, the “Accumulation in the liver” value stood at 19.3±0.6%, the “Accumulation in the lung” value was 3.5±0.2% and the “Accumulation in the spleen” value was 10.2±1.6%. Also, in series [2] (after 24 hours), the “Accumulation in the tumor” value is 11.3±3.3%, the “Clearance from the blood” value was 2.6±0.5 % ID/g, the tumor-to-blood ratio is 4.38±0.85 and the tumor-to-muscle ratio was 23.2±7.2.
